Source: patent US6489315B1, “Cyclic compounds, their production and use” (Takeda Chemical Industries, Ltd., priority 1995, dated 2002)

| melting point | SMILES |
| --- | --- |
| 203 to 205 °C | Cc1cnc2c(c1-c1ccccc1)C(=O)N(Cc1cc(C(F)(F)F)cc(C(F)(F)F)c1)CCN(C)C2=O [Example 50, 6-[3,5-Bis(trifluoromethyl)benzyl]-5,6,7,8,9,10-hexahydro-3,9-dimethyl-5,10-dioxo-4-phenylpyrido(2,3-f][1,4]diazocine] |
| 167 to 169 °C | CN1CCN(Cc2cc(C(F)(F)F)cc(C(F)(F)F)c2)C(=O)c2c(-c3ccccc3)ccnc2C1=O [Example 51, 6-[3,5-Bis(trifluoromethyl)benzyl]-5,6,7,8,9,10-hexahydro-9-methyl-5,10-dioxo-4-phenylpyrido[2,3-f][1,4]diazocine] |
| 183 to 184 °C | Cc1cnc2c(c1-c1ccccc1)C(=O)N(Cc1ccccc1)CCN(C)C2=O [Example 52, 6-Benzyl-5,6,7,8,9,10-hexahydro-3,9-dimethyl-5,10-dioxo-4-phenylpyrido[2,3-f][1,4]diazocine] |
| 228 to 229 °C | CCN1CCN(Cc2cc(C(F)(F)F)cc(C(F)(F)F)c2)C(=O)c2c(ncc(C)c2-c2ccccc2)C1=O [Example 53, 6-[3,5-Bis(trifluoromethyl)benzyl]-9-ethyl-5,6,7,8,9,10-hexahydro-3-methyl-5,10-dioxo-4-phenylpyrido[2,3-f][1,4]diazocine] |
| 247 to 249 °C | Cc1cnc2c(c1-c1ccccc1)C(=O)N(Cc1cc(C(F)(F)F)cc(C(F)(F)F)c1)CCCN(C)C2=O [Example 54, 6-[3,5-Bis(trifluoromethyl)benzyl]-6,7,8,9,10,11-hexahydro-3,10-dimethyl-5,11-dioxo-4-phenyl-5H-pyrido[2,3-g][1,5]diazonine] |
| 145 °C (dec.) | CNC(=O)c1cc(-c2ccccc2)c2c(n1)OCCN(Cc1cc(C(F)(F)F)cc(C(F)(F)F)c1)C2=O [Example 58, 4-[3,5-Bis(trifluoromethyl)benzyl]-N-methyl-2,3,4,5-tetrahydro-5-oxo-6-phenylpyrido[3,2-f][1,4]oxazepine-8-carboxamide] |
| 235 to 236 °C | CN(C)C(=O)c1cc(-c2ccccc2)c2c(n1)OCCN(Cc1cc(C(F)(F)F)cc(C(F)(F)F)c1)C2=O [Example 59, 4-[3,5-Bis(trifluoromethyl)benzyl]-N,N-dimethyl-2,3,4,5-tetrahydro-5-oxo-6-phenylpyrido[3,2-f][1,4]oxazepine-8-carboxamide] |
| 194 to 196 °C | CCCCNC(=O)c1cc(-c2ccccc2)c2c(n1)OCCN(Cc1cc(C(F)(F)F)cc(C(F)(F)F)c1)C2=O [Example 60, 4-[3,5-Bis(trifluoromethyl)benzyl]-N-n-butyl-2,3,4,5-tetrahydro-5-oxo-6-phenylpyrido[3,2-f][1,4]oxazepine-8-carboxamide] |
| 218 to 220 °C | O=C(c1cc(-c2ccccc2)c2c(n1)OCCN(Cc1cc(C(F)(F)F)cc(C(F)(F)F)c1)C2=O)N1CCCCC1 [Example 61, 4-[3,5-Bis(trifluoromethyl)benzyl]-2,3,4,5-tetrahydro-5-oxo-6-phenyl-8-piperidinocarbonylpyrido[3,2-f][1,4]oxazepine] |
| 177 to 179 °C | COc1cc(CN2CCOc3nccc(-c4ccccc4)c3C2=O)cc(OC)c1OC [Example 64, 2,3,4,5-Tetrahydro-5-oxo-6-phenyl-4-(3,4,5-trimethoxybenzyl)pyrido[3,2-f][1,4]oxazepine] |
| 189 to 192 °C | O=C1c2c(-c3ccccc3)ccnc2OCCN1Cc1ccc(Cl)c(Cl)c1 [Example 65, 4-(3,4-Dichlorobenzyl)-2,3,4,5-tetrahydro-5-oxo-6-phenylpyrido[3,2-f][1,4]oxazepine] |
| 175 to 176 °C | COc1ccc(CN2CCOc3nccc(-c4ccccc4)c3C2=O)cc1OC [Example 66, 4-(3,4-Dimethoxybenzyl)-2,3,4,5-tetrahydro-5-oxo-6-phenylpyrido[3,2-f][1,4]oxazepine] |
| 209 to 211 °C | O=C1c2c(-c3ccccc3)ccnc2OCCN1Cc1ccccc1 [Example 67, 4-Benzyl-2,3,4,5-tetrahydro-5-oxo-6-phenylpyrido[3,2-f][1,4]oxazepine] |
| 139 to 141 °C | C[C@@H]1COc2nccc(-c3ccccc3)c2C(=O)N(Cc2ccccc2)C1 [Example 69, (S)-5-Benzyl-2,3,4,5-tetrahydro-3-methyl-6-oxo-7-phenyl-6H-pyrido[2,3-b][1,5]oxazocine] |
| 139 to 140 °C | C[C@H]1COc2nccc(-c3ccccc3)c2C(=O)N(Cc2ccccc2)C1 [Example 70, (R)-5-Benzyl-2,3,4,5-tetrahydro-3-methyl-6-oxo-7-phenyl-6H-pyrido[2,3-b][1,5]oxazocine] |
| 142 to 143 °C | C[C@@H]1COc2nccc(-c3ccccc3)c2C(=O)N(Cc2cc(C(F)(F)F)cc(C(F)(F)F)c2)C1 [Example 71, (S)-5-[3,5-Bis(trifluoromethyl)benzyl]-2,3,4,5-tetrahydro-3-methyl-6-oxo-7-phenyl-6H-pyrido[2,3-b][1,5]oxazocine] |
| 142 to 143 °C | C[C@H]1COc2nccc(-c3ccccc3)c2C(=O)N(Cc2cc(C(F)(F)F)cc(C(F)(F)F)c2)C1 [Example 72, (R)-5-[3,5-Bis(trifluoromethyl)benzyl]-2,3,4,5-tetrahydro-3-methyl-6-oxo-7-phenyl-6H-pyrido[2,3-b][1,5]oxazocine] |
| 203 to 204 °C | Cc1ccc(-c2ccnc3c2C(=O)N(Cc2ccccc2)CCO3)cc1 [Example 79, 4-Benzyl-2,3,4,5-tetrahydro-5-oxo-6-(4-methylphenyl)pyrido(3,2-f][1,4]oxazepine] |
| 212 to 213 °C | Cc1ccc(-c2ccnc3c2C(=O)N(Cc2cc(C(F)(F)F)cc(C(F)(F)F)c2)CCO3)cc1 [Example 80, 4-[3,5-Bis(trifluoromethyl)benzyl]2,3,4,5-tetrahydro-5-oxo-6-(4-methylphenyl)pyrido[3,2-f][1,4]oxazepine] |
| 148 to 149 °C | Cc1ccc(-c2ccnc3c2C(=O)N(Cc2ccccc2)C[C@H](C)CO3)cc1 [Example 81, (S)-5-Benzyl-2,3,4,5-tetrahydro-3-methyl-7-(4-methylphenyl)-6-oxo-6H-pyrido[2,3-b][1,5]oxazocine] |
| 159 to 160 °C | Cc1ccc(-c2ccnc3c2C(=O)N(Cc2cc(C(F)(F)F)cc(C(F)(F)F)c2)C[C@H](C)CO3)cc1 [Example 82, (S)-5-[3,5-Bis(trifluoromethyl)benzyl]2,3,4,5-tetrahydro-3-methyl-7-(4-methylphenyl)-6-oxo-6H-pyrido[2,3-b][1,5]oxazocine] |
